Laboratory results: patent US20070275961A1, “Triazolo ' 1, 5-A ! Pyrimidines and Their Use in Medicine” (VERNALIS (CAMBRIDGE) LIMITED., priority 2003, published 2007)
Where two headings read alike, the source gives them in different places.

Columns and labels:
Format in all cases: biochemical
PDK1 enzyme = target: T1, PDK1 enzyme (Homo sapiens, UniProt O15530); experiment: PDK1 3'-phosphoinositide-dependent kinase assay, phosphorylation of synthetic peptide (33P-ATP filtration)
T1 sequence (O15530 1-556): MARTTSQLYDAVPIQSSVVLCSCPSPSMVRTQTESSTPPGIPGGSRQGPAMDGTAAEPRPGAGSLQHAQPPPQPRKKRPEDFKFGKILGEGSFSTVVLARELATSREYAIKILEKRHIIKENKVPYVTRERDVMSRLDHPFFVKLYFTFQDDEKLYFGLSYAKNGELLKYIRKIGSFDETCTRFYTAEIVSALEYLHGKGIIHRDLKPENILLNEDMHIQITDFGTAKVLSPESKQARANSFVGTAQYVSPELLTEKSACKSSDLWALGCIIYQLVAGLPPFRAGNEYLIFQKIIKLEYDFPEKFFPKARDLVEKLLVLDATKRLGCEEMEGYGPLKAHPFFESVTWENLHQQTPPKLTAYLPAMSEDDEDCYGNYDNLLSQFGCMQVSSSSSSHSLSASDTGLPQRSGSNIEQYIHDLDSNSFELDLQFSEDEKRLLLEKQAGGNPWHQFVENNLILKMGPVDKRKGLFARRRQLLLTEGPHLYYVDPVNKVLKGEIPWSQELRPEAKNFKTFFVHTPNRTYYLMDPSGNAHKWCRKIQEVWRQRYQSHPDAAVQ
Procedure: (§1) The assay mixture containing the inhibitor and PDK1 enzyme was mixed together in a microtiter plate in a final volume of 50 μl and incubated for 60 min at 30° C. The assay mixture contained 0.01 mM unlabeled ATP, 0.01 μCi/μl ^33P-γ-ATP, 0.075 mM peptide, 0.1 mg/ml BSA, 7.5 mM magnesium acetate, 0.05 M Tris.HCl, pH 7.5, 0.5% 2-mercaptoethanol. The reaction was stopped by adding 50 μl of 50 mM phosphoric acid. 90 μl of the mixture were transferred to a pre-wetted 96-well Multiscreen MAPHNOB filtration plate (Millipore) and filtered on a vacuum manifold. The filter plate was washed with three successive additions of 200 μl 50 mM phosphoric acid and then with 100 μl methanol. The filtration plate was dried for 10 min at 65° C., scintillant added and phosphorylated peptide quantified in a scintillation counter (Trilux, PerkinElmer).

Chk1 = target: T2, Chk1 (Homo sapiens, UniProt O14757); experiment: Chk1 kinase assay, phosphorylation of Chktide (33P-ATP filtration)
T2 sequence (O14757 1-476): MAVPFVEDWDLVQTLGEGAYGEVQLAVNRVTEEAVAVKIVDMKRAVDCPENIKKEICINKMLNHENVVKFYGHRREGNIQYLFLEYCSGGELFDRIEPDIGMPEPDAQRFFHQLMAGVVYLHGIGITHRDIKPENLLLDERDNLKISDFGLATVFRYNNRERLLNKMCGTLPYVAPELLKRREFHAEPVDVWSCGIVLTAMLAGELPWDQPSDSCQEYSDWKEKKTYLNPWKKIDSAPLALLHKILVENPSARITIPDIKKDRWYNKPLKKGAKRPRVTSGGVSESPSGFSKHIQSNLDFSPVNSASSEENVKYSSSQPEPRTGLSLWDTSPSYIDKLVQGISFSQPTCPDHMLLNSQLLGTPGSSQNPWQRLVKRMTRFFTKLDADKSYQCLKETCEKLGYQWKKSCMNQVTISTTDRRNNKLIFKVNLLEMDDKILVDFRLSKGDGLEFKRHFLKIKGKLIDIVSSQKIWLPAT
Procedure: Assays for the Chk1 kinase activity were carried out by monitoring the phosphorylation of a synthetic peptide Chktide with the amino acid sequence, […]. The assay mixture containing the inhibitor and Chk1 enzyme was mixed together in a microtiter plate in a final volume of 50 μl and incubated for 40 minutes at 30° C.
The assay mixture contained 0.01 mM unlabeled ATP, 0.5 μCi ^33P-γ-ATP, 30 μM Chktide, 0.1 mg/ml BSA, 50 mM Hepes-NaOH pH 7.5 and 11 nM GST-Chk1 enzyme. The reaction was stopped by adding 50 μl of 50 mM phosphoric acid. 90 μl of the mixture was transferred to a pre-wetted 96-well Multiscreen MAPHNOB filtration plate (Millipore) and filtered on a vacuum manifold. The filter plate was washed with three successive additions of 200 μl 50 mM phosphoric acid and then with 100 μl methanol. The filtration plate was dried for 10 min at 65° C., scintillant added and phosphorylated peptide quantified in a scintillation counter (Trilux, PerkinElmer).

[1] = target: CDK2 enzyme, complexed with cyclin A (Homo sapiens, UniProt P24941); experiment: CDK2 cyclin dependent kinase assay, phosphorylation of synthetic peptide […] (33P-ATP filtration); settings: Table 1; 0.1 mM ATP
Procedure: as §1, with “and CDK2 enzyme, complexed with cyclin A (0.4 U/ml)” for “and PDK1 enzyme”, “for 40” for “for 60”, “contained 0.1” for “contained 0.01”, “^33P-γ-ATP, 0.03” for “^33P-γ-ATP, 0.075”, “acetate, 50 mM HEPES-NaOH,” for “acetate, 0.05 M Tris.HCl,”, “pH 7.5.” for “pH 7.5, 0.5% 2-mercaptoethanol.”
HEPES is N-[2-hydroxyethyl]piperazine-N′-[2-ethanesulfonic acid]. BSA is bovine serum albumin.

[2] = Table 1, 0.01 mM ATP, read-out: PDK1 IC50
[3] = Table 1, 0.01 mM ATP, read-out: Chk1 IC50
[4] = Table 4, 0.01 mM ATP, read-out: PDK1 IC50
[5] = Table 4, 0.01 mM ATP, read-out: Chk1 IC50

IC50 (PDK1 enzyme; [2]) [µM]	IC50 (Chk1; [3]) [µM]	IC50 [1] [µM]	IC50 (PDK1 enzyme; [4]) [µM]	IC50 (Chk1; [5]) [µM]	Compound	also measured
> 200	> 200	20.1	–	–	NS(=O)(=O)c1ccc(Nc2cc(Cl)nc3ncnn23)cc1 [Example 1, 7-(4-Aminosulfonylphenylamino)-5-chlorotriazolol[1,5-a]pyrimidine]	–
> 200	> 200	–	–	–	NS(=O)(=O)c1ccc(Nc2cc(OC3CCCCC3)nc3ncnn23)cc1 [Example 2, 7-(4-Aminosulfonylphenylamino)-5-cyclohexyloxytriazolo[1,5-a]pyrimidine]	–
> 200	> 200	1.82	–	–	Cc1cccc(-c2cc(Nc3ccc(S(N)(=O)=O)cc3)n3ncnc3n2)c1 [Example 3, 7-(4-Aminosulfonylphenylamino)-5-(3-methylphenyl)triazolo[1,5-a]pyrimidine]	–
> 200	> 200	0.39	–	–	CCN(CC)c1cc(Nc2ccc(S(N)(=O)=O)cc2)n2ncnc2n1 [Example 4, 4-(5-Diethylamino-[1,2,4]triazolo[1,5-a]pyrimidine-7-ylamino)-benzenesulfonamide]	–
> 200	> 200	6.4	–	–	C[C@H]1CCCC(Oc2cc(Nc3ccc(S(N)(=O)=O)cc3)n3ncnc3n2)C1 (some centres unmarked) [Example 5]	–
> 200	> 200	85	–	–	Clc1cc(NCc2ccccc2)n2ncnc2n1 [Example 6]	–
> 200	> 200	22.7	–	–	O=S(=O)(c1ccc(Nc2cc(Cl)nc3ncnn23)cc1)N1CCC(O)CC1 [Example 7]	–
> 200	> 200	48.2	–	–	CN(C)S(=O)(=O)c1ccc(Nc2cc(Cl)nc3ncnn23)cc1 [Example 8]	–
> 200	> 200	0.89	–	–	CC(C)Nc1cc(Nc2ccc(S(N)(=O)=O)cc2)n2ncnc2n1 [Example 9]	–
> 200	> 200	5.74	–	–	NS(=O)(=O)c1ccc(Nc2cc(NC(CCO)c3ccccc3)nc3ncnn23)cc1 (centres unmarked) [Example 10]	–
> 200	> 200	0.55	–	–	NS(=O)(=O)c1ccc(Nc2cc(NC3CCCC3)nc3ncnn23)cc1 [Example 11]	–
> 200	> 200	13	–	–	CCOc1cc(Nc2ccc(S(N)(=O)=O)cc2)n2ncnc2n1 [Example 12]	–
> 200	> 200	20.1	–	–	NS(=O)(=O)c1ccc(Nc2cc(Oc3ccccc3)nc3ncnn23)cc1 [Example 13]	–
> 200	> 200	1.85	–	–	CC(C)COc1cc(Nc2ccc(S(N)(=O)=O)cc2)n2ncnc2n1 [Example 14]	–
> 200	> 200	11.3	–	–	NS(=O)(=O)c1ccc(CNc2cc(OC3CCCCC3)nc3ncnn23)cc1 [Example 15]	–
> 200	> 200	48	–	–	COc1ccc(Br)cc1-c1cc(N[C@H]2CC[C@H](O)CC2)n2ncnc2n1 [Example 16]	–
> 200	> 200	16.7	–	–	O=S(=O)(c1ccc(Nc2cc(Cl)nc3ncnn23)cc1)N1CCOCC1 [Example 17]	–
43.3	93.5	–	–	–	NS(=O)(=O)c1ccc(Nc2cc(N[C@H]3CC[C@H](N)CC3)nc3ncnn23)cc1 [Example 36]	–
64	> 200	–	–	–	NS(=O)(=O)c1ccc(Nc2cc(NC3CCCCC3)nc3ncnn23)cc1 [Example 37]	–

IC50 (PDK1 enzyme; [2]) [µM]	IC50 (Chk1; [3]) [µM]	IC50 [1] [µM]	IC50 (PDK1 enzyme; [4]) [µM]	IC50 (Chk1; [5]) [µM]	Compound	also measured
> 200	> 200	–	–	–	NS(=O)(=O)c1ccc(Nc2cc(OCC3CCCCC3)nc3ncnn23)cc1 [Example 51]	–
–	–	–	–	–	Brc1cccc(-c2cc(NCc3ccncc3)n3ncnc3n2)c1 [Example 55]	IC50 (PDK1 enzyme): > 200 µM; IC50 (Chk1): > 200 µM
–	–	–	–	–	CCN(CC)c1cc(NCC2CCNCC2)n2ncnc2n1 [Example 86]	IC50 (PDK1 enzyme; Table 2, 0.01 mM ATP, read-out: PDK1 IC50): > 200 µM; IC50 (Chk1; Table 2, 0.01 mM ATP, read-out: Chk1 IC50): > 200 µM
–	–	–	4.66	3.92	NC(=O)c1ccc(Nc2cc(-c3cccc(O)c3)n3ncnc3n2)cc1 [Example 142]	–
–	–	–	11.4	4.71	NC(=O)Cc1ccc(Nc2cc(-c3ccc4c(c3)OCO4)n3ncnc3n2)cc1 [Example 143]	–
–	–	–	12.2	68.3	CCOc1cccc(-c2cc(Nc3ccc(C(N)=O)cc3)nc3ncnn23)c1 [Example 144]	–
–	–	–	14.6	19.7	NC(=O)c1ccc(Nc2cc(-c3cccc(OCC4CCNCC4)c3)n3ncnc3n2)cc1 [Example 150]	–
–	–	–	13.4	32.7	Fc1cccc(-c2cc(Nc3cccc(Oc4ccccc4)c3)nc3ncnn23)c1 [Example 152]	–
–	–	–	12	24.7	Fc1cccc(-c2cc(Nc3ccc(Oc4ccccc4)cc3)nc3ncnn23)c1 [Example 153]	–
–	–	–	12.6	15.1	Fc1cccc(-c2cc(Nc3ccc(Sc4ccccc4)cc3)nc3ncnn23)c1 [Example 155]	–
–	–	–	7.94	13	O=S(=O)(Nc1nccs1)c1ccc(Nc2cc(-c3cccc(F)c3)n3ncnc3n2)cc1 [Example 156]	–
–	–	–	10.5	6.75	CN(C)c1ccc(Nc2cc(-c3cccc(F)c3)n3ncnc3n2)cc1 [Example 158]	–
–	–	–	7.66	22.6	CNS(=O)(=O)Cc1ccc(Nc2cc(-c3cccc(F)c3)n3ncnc3n2)cc1 [Example 159]	–
–	–	–	1.32	15.8	CCCc1cc(OC)cc(-c2cc(Nc3ccc(C(N)=O)cc3)nc3ncnn23)c1 [Example 160]	–
–	–	–	1.66	9.04	CCCc1cc(OCCN)cc(-c2cc(Nc3ccc(C(N)=O)cc3)nc3ncnn23)c1 [Example 161]	–
–	–	–	7.34	31.7	CCCc1cc(OCCN(C)C)cc(-c2cc(Nc3ccc(C(N)=O)cc3)nc3ncnn23)c1 [Example 162]	–
–	–	–	5.44	9.82	CN(C)CCOc1cccc(-c2cc(Nc3ccc(C(N)=O)cc3)nc3ncnn23)c1 [Example 163]	–
–	–	–	1.6	0.66	CCc1cc(O)cc(-c2cc(Nc3ccc(C(=O)NCCN(CC)CC)cc3)nc3ncnn23)c1 [Example 164]	–
–	–	–	3.99	3.39	CCc1cc(OCCN)cc(-c2cc(Nc3ccc(C(=O)NCCN(CC)CC)cc3)nc3ncnn23)c1 [Example 167]	–
